Results reported in patent US9198891B2, “Method of treating cancer by inhibition of protein kinase-like endoplasmic reticulum protein kinase” (New York University, priority 2010, dated 2015).

System: Mouse PERK
Experiment: In vitro kinase inhibition assay: PERK-mediated eIF2α phosphorylation
Format: biochemical
Settings: for Activity (ability to inhibit PERK-mediated eIF2α phosphorylation in vitro): compounds selected in the initial VLS; for relative inhibition of PERK among the six active compounds: initial VLS screening; for inhibition of PERK-dependent eIF2α phosphorylation in vitro: tested at 10 μM (FIG. 1C)
Procedure: Mouse PERK proteins comprising the cytoplasmic portion of the molecule with the delta loop deleted were pre-incubated with varying concentrations of compound at room temperature for 10 minutes. This construct thus contains close to a minimal catalytic domain of PERK, closely similar but not identical to SEQ ID NO: 1. The kinase reaction was initiated by the addition of 2 μM ATP, 0.2 μM γ-[^32P]ATP, 10 μM eIF2α and allowed to proceed at room temperature for 15 minutes (Marciniak et al., “Activation-Dependent Substrate Recruitment by the Eukaryotic Translation Initiation Factor 2 Kinase PERK,” J Cell Biol 172: 201-9 (2006), which is hereby incorporated by reference in its entirety). The phosphorylated eIF2α was then separated on 14% SDS-PAGE and visualized by autoradiography. To determine the selectivity of the compounds, their ability to inhibit protein kinase PKA was also evaluated. Briefly, PKA was pre-incubated with the compound at 40 μM, the highest concentration used in the PERK assay, for 10 minutes. Then, 10 μM ATP, 0.2 μM γ-[^32P]ATP and 10 μM GSTag were added, followed by the incubation at room temperature for 15 minutes.

Row | Activity (ability to inhibit PERK-mediated eIF2α phosphorylation in vitro) | concentration range over which PERK inhibition is displayed | relative inhibition of PERK among the six active compounds | inhibition of PERK-dependent eIF2α phosphorylation in vitro | Compound
1 | active | – | – | – | Cc1ccc(OCCOCCOc2ccccc2/C=C2\SC(=N)NC2=O)cc1 [Compound C1]
2 | inactive | – | – | – | O=C(Nc1ccc(O)cc1C(=O)O)c1ccc(C(=O)Nc2ccc(O)cc2C(=O)O)cc1 [Compound C3]
3 | inactive | – | – | – | NS(=O)(=O)c1ccc(CNC(=O)/C=C/c2ccc3c(c2)OCO3)cc1 [Compound C6]
4 | active | 1 to 25 µM | relatively stronger inhibition of PERK | active | O=C(COc1ccccc1)NC(=S)Nc1ccc(O)c(-c2nc3ccccc3s2)c1 [Compound D1]
5 | inactive | – | – | – | CCC(Sc1nnc(COc2ccccc2C)n1C)C(=O)Nc1ccc(C(C)=O)cc1 (stereo not drawn) [Compound D4]
6 | active | – | – | – | CCOC(=O)c1c(NC(=O)CSc2nc(N)cc(=O)[nH]2)sc2c1CCC2 [Compound E1]

The next lines start with the molecule.

Row | Compound | Activity (ability to inhibit PERK-mediated eIF2α phosphorylation in vitro) | concentration range over which PERK inhibition is displayed | relative inhibition of PERK among the six active compounds | inhibition of PERK-dependent eIF2α phosphorylation in vitro
7 | ON=C1CC2C3CC(C12)C1/C(=N\O)CC31 (stereo not drawn) [Compound A1] | inactive | – | – | –
8 | O=C(CNC(=O)c1ccco1)N/N=C/c1ccc(O)cc1 [Compound A2] | inactive | – | – | –
9 | Cc1ccccc1N1C(=O)CC(SC(=N)N/N=C/c2ccc(O)c(O)c2)C1=O (stereo not drawn) [Compound A3] | inactive | – | – | –
10 | COc1cc(/C=N\N(C)c2nc(-c3ccccc3)cc(-c3ccc(Br)cc3)n2)ccc1O [Compound A4] | active | narrow range of concentration | relatively stronger inhibition of PERK | active
11 | CCC(Oc1ccccc1)C(=O)Nc1sc2c(c1C(N)=O)CCC(C(C)(C)C)C2 (stereo not drawn) [Compound B2] | active | – | – | –
12 | O=C(Nc1cccc(Oc2ccc3c(c2)C(=O)N(c2ccc(O)cc2)C3=O)c1)c1ccco1 [Compound B6] | active | – | – | –
